Results on four molecules are retold here after US20250042864A1, “SOLID STATE FORM OF TAFAMIDIS” (TEVA PHARMACEUTICALS INTERNATIONAL GMBH, priority 2021, published 2025).

Values after ≈ are worked out from the molar mass of the structure shown.

Holding throughout (assay type): physicochemical
The nature of data set [1]: particle size / morphology of crystalline forms. As to conditions: morphology comparison of crystalline forms.
Data set [2] is described as follows: water solubility of crystalline forms of tafamidis.
The nature of data set [3]: stability to suspension (slurry) in PEG 400 at room temperature, analysed by XRPD. As to conditions: slurry in PEG 400, room temperature, XRPD (FIG. 6). The procedure: 50 mg of samples of Form Va and Form 4 were placed into glass vials. 1 ml of PEG 400 was added at room temperature. The slurries were each mixed using a magnetic stirrer. The resulting samples were analysed by XRPD after 2 hours and after 7 days.

For `O=C(O)c1ccc2nc(-c3cc(Cl)cc(Cl)c3)oc2c1` [Form 1, 2-(3,5-dichlorophenyl)-1,3-benzoxazole-6-carboxylic acid], the particle size entry in data set [1] is recorded as “up to 100 μm”.
In the case of `O=C(O)c1ccc2nc(-c3cc(Cl)cc(Cl)c3)oc2c1` [Form 6, 2-(3,5-dichlorophenyl)-1,3-benzoxazole-6-carboxylic acid], the particle size in data set [1] is on record as above 100 μm.
As to `O=C(O)c1ccc2nc(-c3cc(Cl)cc(Cl)c3)oc2c1` [Form V, 2-(3,5-dichlorophenyl)-1,3-benzoxazole-6-carboxylic acid], in data set [2], the water solubility was found to be 1.47 µg/mL (≈ 4.77 µM).
Take `O=C(O)c1ccc2nc(-c3cc(Cl)cc(Cl)c3)oc2c1` [Form Va, 2-(3,5-dichlorophenyl)-1,3-benzoxazole-6-carboxylic acid]: the particle size in data set [1] is recorded as 5-10 μm. Moreover, the solubility in data set [2] came out at 2.21 µg/mL (≈ 7.17 µM). In addition, the “time for which the form is stable in PEG 400 slurry” value in data set [3] is reported as “at least 7 days”.

For orientation: solubility means how much of the substance goes into solution per volume. A higher solubility goes with a readily soluble substance.
